Data published in patent publication US6071946A, “Tricyclic urea compounds” (Adir et Compagnie, priority 1994, dated 2000).
One block for each compound: values may come before it.

How the values were obtained:
melatonin receptors = molecular target: T1, melatonin receptors (Ovis aries, UniProt P48040); test: Binding to melatonin receptors, sheep pars tuberalis cells (competition with 2-iodo-melatonin); details: sheep pars tuberalis membranes
T1 construct: Sheep pars tuberalis membranes are prepared and used as target tissue; from tissue; host or cells: sheep pars tuberalis membranes
Method: B1) Study on Sheep Pars Tuberalis Cells
Studies of the binding of the compounds of the invention to melatonin receptors were carried out according to conventional techniques on sheep pars tuberalis cells. The pars tuberalis of the adenohypophysis is in fact characterized, in mammals, by a high density of melatonin receptors (Journal of Neuroendocrinology, 1, pp 1-4, 1989).
1) Sheep pars tuberalis membranes are prepared and used as target tissue in saturation experiments in order to determine the binding capacities and affinities for 2-(^125 I) iodomelatonin.
2) Sheep pars tuberalis membranes are used as target tissue, with the various compounds to be tested, in competitive binding experiments with respect to 2-iodo-melatonin.
Each experiment is carried out in triplicate and a range of different concentrations is tested for each compound.
The results make it possible to determine, after statistical treatment, the binding affinities of the compound tested.

C3H/He mice = test: Free exploratory test in C3H/He mice; type: in vivo; details: oral
Method: Effects in the free exploratory test in C3H/He mice
Behavior was assessed in a box subdivided into six equal square exploratory units, which were interconnected by small doors. It could be divided in half lengthwise by closing partitions. Twenty-four hours before the test, each animal was randomly placed in one half of the apparatus, with the temporary partitions in place, in order to become familiarized with it. […]
numbers of attempts towards the unfamiliar compartment latency of the first entry into the unfamiliar compartment time spent in the unfamiliar compartment locomotion in the unfamiliar compartment number of rears in the unfamiliar compartment locomotion in the familiar compartment number of rears in the familiar compartment
Compounds were orally administered at doses of […] (in 1% HEC), 40 minutes before the test.
The […] group received the vehicle under the same conditions.

[1] = Foregoing pharmacological Examples (A to I), carbamides or ureas substituted for the compounds of Examples 119 and 131; details: in place of the compounds of Examples 119 and 131
[2] = 40 minutes before test, statistically significant for the 3 tested doses

T1 sequence (P48040 whole entry): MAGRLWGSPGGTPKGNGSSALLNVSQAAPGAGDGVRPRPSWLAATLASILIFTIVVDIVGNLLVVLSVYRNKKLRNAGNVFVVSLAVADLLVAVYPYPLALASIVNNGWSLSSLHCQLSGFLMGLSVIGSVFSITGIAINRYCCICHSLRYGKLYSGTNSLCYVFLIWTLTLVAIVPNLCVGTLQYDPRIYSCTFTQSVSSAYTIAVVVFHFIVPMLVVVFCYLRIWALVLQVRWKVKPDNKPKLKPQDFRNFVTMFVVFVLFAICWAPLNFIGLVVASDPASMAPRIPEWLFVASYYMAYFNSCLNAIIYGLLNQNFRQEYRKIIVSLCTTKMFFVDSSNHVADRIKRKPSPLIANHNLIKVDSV

- affinity for melatonin receptors (in words) (melatonin receptors): extremely powerful affinity
SMILES: CC(=O)NCCc1cccc2ccc3c(c12)CC(C)O3 (stereo not shown) [Example 119, 2,3-DIHYDRO-2-METHYL-4-(2-ACETAMIDOETHYL)1-NAPHTHO[2,1-b]-FURAN]

SMILES: CC(=O)NCCc1coc2ccc3c(c12)CCCO3 [Example 131, N-[2-(8,9-Dihydro-7H-furo[3,2-f]chromen-1-yl)ethyl]acetamide]
- latency of the first entry into the unfamiliar compartment (C3H/He mice; [2]): dose-dependently reduced
- locomotion in the unfamiliar compartment (C3H/He mice; [2]): increased the locomotion in the unfamiliar compartment
- numbers of attempts towards the unfamiliar compartment (C3H/He mice; [2]): dose-dependently reduced
- number of rears in the unfamiliar compartment (C3H/He mice; at 25 mg/kg (highest dose)): significantly increased the number of rears in the unfamiliar compartment
- time spent in the unfamiliar compartment (C3H/He mice; at 5 and 25 mg/kg): significantly increased the time spent in the unfamiliar compartment

SMILES: CNC(=O)NCCc1cccc2ccc3c(c12)CC(C)O3 (stereo not shown) [Example 120, N-[2-(2,3-DIHYDRO-2-METHYL-1-NAPHTHO[2,1-b]FURAN-4-YL)ETHYL]-N'-METHYLUREA]
- results in the foregoing pharmacological Examples, compared with the compounds of Examples 119 and 131 [1]: approximately equally statistically-significant results
